Data: patent publication US20160067162A1, “PHOTOPROTECTIVE COMPOUNDS, COMPOSITIONS INCLUDING SAME AND USES THEREOF” (UNIVERSITE DE RENNES 1, priority 2013, published 2016)

Tests used:
Assay type in all cases: physicochemical
[1] = UV spectrum measurement in CHCl3 (λmax, molar extinction coefficient)
Experimental: The products are diluted in CHCl3 so as to obtain a solution at 10^−4M. The UV spectra are measured using a Uvikon 931 UV-vis spectrophotometer, Serlabo Technologies, Entraigues sur la Sorgue, France. This UV spectrum makes it possible to determine the molar extinction coefficient (mol^−1 L cm^−1) at the λmax by virtue of the Beer-Lambert law: c=A/l×C;
A=value of the absorbance at the λmax; l=length of the cuvette in cm (l=1);
C=concentration of the solution=1×10^−4 mol/l. The theoretical λmax was determined for certain products by DFT calculation.

[2] = SPF measurement, Protocol II (Nantes): O/W emulsion on PMMA plate, transmission with integrating sphere
Experimental: The SPF measurement is carried out according to the protocol described in Lohézic-Le Dévéhat F., Legouin B., Couteau C., Boustie J., Coiffard L. “Lichenic extracts and metabolites as UV filters” Journal of Photochemistry and Photobiology B: Biology 120 (2013) 17-28:
An emulsion having the following formulation is used: […]
The two phases are prepared separately. The hydrophilic phase is then added, with stirring, to the lipophilic phase. The products are finally incorporated at 1% into this O/W emulsion. 30 mg of the whole mixture are distributed over the entire surface area (25 cm^2) of a PMMA plate using a finger store. After spreading, 15 mg remain on the finger store. Three plates are prepared per product and nine measurements are carried out. The transmission measurements between 290 and 400 nm for the SPF and between 320 and 400 nm for the UVA-PF are carried out using a spectrophotometer equipped with an integrating sphere (UV Transmittance analyzer UV1000S, Labsphere, North Sutton, US).
(§1) The SPF and UVA-PF values are, for the two protocols, calculated from the following equations: […]
(§2) where Eλ is the erythemogenic effect of the radiation at the wavelength λ; Sλ is the spectral solar irradiance at the wavelength λ and Tλ is the spectral transmittance of the product at the wavelength λ, λc is the critical wavelength which corresponds to the wavelength at which 90% of the area under the curve (AUC) is integrated between 290 and 400 nm. The UVA/UVB ratio corresponds more specifically to the ratio of the area under the curve between 315 and 400 nm to the area under the curve between 280 and 315 nm.

[3] = SPF measurement, Protocol I (Rennes): simplified O/W emulsion, UV spectrum 200-400 nm
Experimental: The SPF measurement is carried out according to the following protocol described in Le Dévéhat F., Malargé A., Couteau C., Coiffard L., Legouin B. “Evaluation of a new UV-filter screening method”, 4th symposium of the AFERP “Biodiversity, chimie des substances naturelles et medicaments” [“Biodiversity, chemistry of natural substances and medicaments”] and 3rd Franco-Pakistani symposium, Besançon (France), Jul. 16-17-18, 2010. A solution of each product dissolved in dimethyl sulfoxide is incorporated at 10% into a simplified emulsion of oil-in-water (O/W) type consisting of liquid paraffin, water and SDS at 10%, the whole mixture taken up in absolute ethanol. The UV spectrum of each solution is recorded between 200 nm and 400 nm in a 10 mm quartz cell on a Uvikon 931 UV-vis spectrophotometer and measured in comparison with a control 10% emulsion solution.
as §1, §2

λmax exp ([1]; 10^−4 M in CHCl3): 330 nm | ε (molar extinction coefficient at the λmax) ([1]; 10^−4 M in CHCl3, 1 cm cuvette): 16259 L/mol/cm
Structure (SMILES): COc1ccc(C2=CC(=O)CCN2)cc1 [Compound 3, 6-(4-methoxyphenyl)-2,3-dihydropyridin-4(1H)-one]
λc (p.II) ([2]; critical wavelength): 384 nm | SPF (p.II, at 1%) ([2]; product at 1% in O/W emulsion, PMMA plate, 290-400 nm): 1.25 ± 0.04 | Colipa UVA-PF (p.II, at 1%) ([2]; product at 1%, 320-400 nm): 1.33 ± 0.04 | λc p.I ([3]; critical wavelength, protocol I): 362 nm | Colipa UVA-PF p.I, at 10% ([3]; protocol I, product at 10%): 9.16 ± 0.10 | SPF p.I, at 10% ([3]; protocol I, product at 10% in simplified O/W emulsion): 4.30 ± 0.12 | UVA/UVB ([3]; ratio of area under the curve 315-400 nm to 280-315 nm): 2.85 ± 0.01
